Where two headings read alike, the source gives them in different places. Where a SMILES comes first, the peptide text is derived from it. [ ]: non-standard residue; d: D form. The star is where a group is joined. X1 = CC(C)CCC[C@@H](C)[C@H]1CC[C@H]2[C@@H]3CC=C4C[C@@H](OC(=O)CCOCCOCCOCCOCCNC(=O)C*)CC[C@]4(C)[C@H]3CC[C@]12C; Undecanoyl = CCCCCCCCCCC(=O)*; Aic = NC1(C(=O)O)Cc2ccccc2C1; Nle = CCCC[C@H](N)C(=O)O
What was measured:
[1] = cited from earlier work
MeV = details: for IC50 / IC90: 2 h
poliovirus Sb-1 = assay type: cell-based
HCoV-229E = details: 2 h
[2] = system: peripheral blood mononuclear cells (PBMCs); test: MTT cytotoxicity assay on PBMCs; assay type: cell-based, human; details: 2 h and 24 h
Experimental: Vero cells (ATCC CCL-81, Manassas, VA, USA) and Vero/hSLAM cells (ECACC 04091501, Porton Down, UK) and Madin Darby canine kidney (MDCK, CCL-34) were grown in Dulbecco’s Modified Eagle Medium (DMEM) with 4.5 g/L glucose (Microtech, Naples, Italy) supplemented with 100 IU/mL penicillin and 100 μg/mL streptomycin (Himedia, Naples, Italy) and 10% Fetal Bovine Serum (Microtech). PBMCs were isolated as follow. Buffy coats acquired from a healthy anonymous donor were used to isolate PBMCs on a Ficoll-Hypaque density gradient (Sigma-Aldrich) according to standard procedures. Then, PBMCs were grown (5 × 10^6/mL) in RPMI 1640 (Microtech) supplemented with 10% FBS, 60 IU/mL of interleukin-2 (IL-2, Sigma-Aldrich) and 2 µg/mL of phytohemagglutinin (PHA) (Sigma-Aldrich).
Vero cells were seeded in 96-well microtiter tissue culture plates (5 × 10^3 cells /well) and incubated for 24 h at 37 °C in 5% CO2. PBMCs were isolated and then cultured at a concentration of 1 × 10^5 cells/well.
The cytotoxicity for both cell types was evaluated by the MTT (Sigma-Aldrich) assay based on the reduction of the yellowish MTT to the insoluble and dark blue formazan by viable and metabolically active cells. Temporin-based peptides were tested at […] concentrations (0.1, 1, 6.25, 12.5, 25, 50 and 100 µM) after 2 and 24 h. At the end of incubation, 100 μL of an MTT solution (5 mg/mL) was added in each well and incubated for 3 h at 37 °C. The supernatant was discarded and 100 μL of DMSO 100% (Sigma Aldrich) was added (to dissolve the formazan salts) for 10 min with vigorous agitation at room temperature. Cytotoxicity was evaluated by spectrophotometric reading at 540 nm. The viability of Vero cells in each well was presented as a percentage of control cells. All experiments were performed in triplicate, and the means standard deviations are reported. Nonlinear regression analysis was performed using GraphPad Prism software (GraphPad Software, San Diego, CA, USA) to determine the CC50.

[3] = MTT cytotoxicity assay on Vero cells; assay type: cell-based; details: MTT, calculated after 2 h of peptide treatment
[4] = system: influenza virus (subtype H1N1); details: influenza virus (subtype, 2 h)
CV-B3 = test: Plaque reduction assay, CV-B3; assay type: cell-based, Enterovirus B (coxsackievirus B3, ATCC VR-688); details: four experimental settings
human erythrocytes = details: for hemolytic activity: at their antiviral concentrations
Experimental: The hemolytic activity of the peptides was determined using fresh human erythrocytes from healthy donors as reported previously. Briefly, the blood was centrifuged, and the erythrocytes were washed three times with 0.9% NaCl. Peptides were added to the erythrocyte suspension (5% v/v), at a final concentration ranging from 0.1 to 100 μM in a final volume of 100 μL. The samples were incubated with agitation at 37 °C for 60 min. The release of hemoglobin was monitored by measuring the absorbance (Abs) of the supernatant at 540 nm. The control for zero hemolysis (blank) consisted of erythrocytes suspended in the presence of peptide solvent. Hypotonically lysed erythrocytes were used as a standard for 100% hemolysis. The percentage of hemolysis was calculated using the equation: % hemolysis = [(Abssample − Absblank)/(Abstotal lysis − Absblank)] × 100

HCoV-OC43 = details: 2 h
HPIV-3 = details: 2 h
Vero cells = test: MTT cytotoxicity assay on Vero cells; assay type: cell-based; details: 2 h of treatment, concentration above 50 μM
HSV-1 = system: HSV-1; parameters: method as in PMID 29483113; details: preincubation of HSV-1 purified virions with 20 µg/mL; cited from earlier work

Compound	%Helix in DPC ([1]; Table 2) [%]	IC50 (MeV) [µM]	IC90 (MeV) [µM]	IC50 (HCoV-229E) [µM]	IC90 (HCoV-229E) [µM]	cytotoxicity on PBMCs [2]	CC50 [3] [µM]	IC50 [4] [µM]	IC90 [4] [µM]	further results
CC[C@H](C)[C@H](NC(=O)[C@H](CCCNC(=N)N)NC(=O)CNC(=O)[C@@H](CC(C)C)NC(=O)[C@H](Cc1ccccc1)NC(=O)[C@H](CCCCN)NC(=O)[C@H](CO)NC(=O)[C@H](Cc1ccccc1)NC(=O)[C@H](Cc1c[nH]c2ccccc12)NC(=O)[C@@H]1CCCN1C(=O)[C@@H](NC(=O)[C@@H](N)Cc1ccccc1)C(C)C)C(=O)N[C@@H](CC(C)C)C(N)=O [TL1, H-Phe-Val-Pro-Trp-Phe-Ser-Lys-Phe-DLeu-Gly-Arg-Ile-Leu-NH2] (H-FVPWFSKF[dL]GRIL-NH2)	42	> 50	> 50	7.66	30.1	minor damage	42.2	6.74	12.5	%Helix in DPC ([1]; Table 1): 42%; reduction of infectivity, MeV (MeV; cell pretreatment assay, peptide 25 μM): over 40%; effect on MeV in the virus pretreatment assay (MeV; virus pretreatment assay): not affected; infectivity of poliovirus Sb-1 in the presence of peptide (poliovirus Sb-1): not altered; infectivity of CV-B3 in the presence of peptide (CV-B3): not altered; hemolytic activity (human erythrocytes): practically devoid of hemolytic activity
CCCC[C@H](NC(=O)[C@@H](CC(C)C)NC(=O)[C@H](Cc1ccccc1)NC(=O)[C@H](CCCCN)NC(=O)[C@H](CO)NC(=O)[C@H](Cc1ccccc1)NC(=O)[C@H](Cc1c[nH]c2ccccc12)NC(=O)[C@@H]1CCCN1C(=O)[C@@H](NC(=O)[C@@H](N)Cc1ccccc1)C(C)C)C(=O)N[C@@H](CCCNC(=N)N)C(=O)N[C@H](C(=O)N[C@@H](CC(C)C)C(N)=O)[C@@H](C)CC [TL6, H-Phe-Val-Pro-Trp-Phe-Ser-Lys-Phe-DLeu-Nle-Arg-Ile-Leu-NH2] (H-FVPWFSKF[dL][Nle]RIL-NH2)	51	34.6	> 50	2.08	13.1	minor damage	64.5	2.66	9.34	IC50 (HCoV-OC43): 0.97 µM; IC90 (HCoV-OC43): 10 µM; IC50 (HPIV-3): 32.4 µM; IC90 (HPIV-3): > 50 µM
CCCC[C@H](NC(=O)[C@@H](CC(C)C)NC(=O)[C@H](Cc1ccccc1)NC(=O)[C@H](CCCCN)NC(=O)[C@H](CO)NC(=O)[C@H](Cc1ccccc1)NC(=O)[C@H](Cc1c[nH]c2ccccc12)NC(=O)[C@@H]1CCCN1C(=O)[C@@H](NC(=O)[C@@H](N)Cc1ccccc1)C(C)C)C(=O)N[C@@H](CCCNC(=N)N)C(=O)N[C@H](C(=O)N[C@@H](CC(C)C)C(=O)NCC(=O)NCC(=O)N[C@@H](CSCC(=O)NCCOCCOCCOCCOCCC(=O)O[C@H]1CC[C@@]2(C)C(=CC[C@H]3[C@@H]4CC[C@H]([C@H](C)CCCC(C)C)[C@@]4(C)CC[C@@H]32)C1)C(N)=O)[C@@H](C)CC [TL6.2, H-Phe-Val-Pro-Trp-Phe-Ser-Lys-Phe-DLeu-Nle-Arg-Ile-Leu-Gly-Gly-Cys-[PEG4-Cholesterol]-NH2] (H-FVPWFSKF[dL][Nle]RILGGC(X1)-NH2)		40.9	> 50				> 100	21.1	49.9	toxicity (Vero cells): about 40%
CCCC[C@H](NC(=O)[C@@H](CC(C)C)NC(=O)[C@H](Cc1ccccc1)NC(=O)[C@H](CCCCN)NC(=O)[C@H](CO)NC(=O)[C@H](Cc1ccccc1)NC(=O)[C@H](Cc1c[nH]c2ccccc12)NC(=O)[C@@H]1CCCN1C(=O)[C@@H](NC(=O)[C@H](Cc1ccccc1)NC(=O)[C@@H](N)CSCC(=O)NCCOCCOCCOCCOCCC(=O)O[C@H]1CC[C@@]2(C)C(=CC[C@H]3[C@@H]4CC[C@H]([C@H](C)CCCC(C)C)[C@@]4(C)CC[C@@H]32)C1)C(C)C)C(=O)N[C@@H](CCCNC(=N)N)C(=O)N[C@H](C(=O)N[C@@H](CC(C)C)C(N)=O)[C@@H](C)CC [TL6.3, H-[Cholesterol-PEG4]-Cys-Phe-Val-Pro-Trp-Phe-Ser-Lys-Phe-DLeu-Nle-Arg-Ile-Leu-NH2] (H-C(X1)FVPWFSKF[dL][Nle]RIL-NH2; N-terminus assumed)		22.3	31.1			minor damage	> 100	2.55	5.89	
CCCCCCCCCCC(=O)N[C@@H](Cc1ccccc1)C(=O)N[C@H](C(=O)N1CCC[C@H]1C(=O)N[C@@H](Cc1c[nH]c2ccccc12)C(=O)N[C@@H](Cc1ccccc1)C(=O)N[C@@H](CO)C(=O)N[C@@H](CCCCN)C(=O)N[C@@H](Cc1ccccc1)C(=O)N[C@H](CC(C)C)C(=O)N[C@@H](CCCC)C(=O)N[C@@H](CCCNC(=N)N)C(=O)N[C@H](C(=O)N[C@@H](CC(C)C)C(N)=O)[C@@H](C)CC)C(C)C [TL6.5, H-Undecanoic acid-Phe-Val-Pro-Trp-Phe-Ser-Lys-Phe-DLeu-Nle-Arg-Ile-Leu-NH2] (Undecanoyl-FVPWFSKF[dL][Nle]RIL-NH2)		10	29.2			minor damage	> 100	< 0.1	< 0.1	
CC[C@H](C)[C@H](NC(=O)[C@H](CCCNC(=N)N)NC(=O)C1(NC(=O)[C@@H](CC(C)C)NC(=O)[C@H](Cc2ccccc2)NC(=O)[C@H](CCCCN)NC(=O)[C@H](CO)NC(=O)[C@H](Cc2ccccc2)NC(=O)[C@H](Cc2c[nH]c3ccccc23)NC(=O)[C@@H]2CCCN2C(=O)[C@@H](NC(=O)[C@@H](N)Cc2ccccc2)C(C)C)Cc2ccccc2C1)C(=O)N[C@@H](CC(C)C)C(N)=O [TL12, H-Phe-Val-Pro-Trp-Phe-Ser-Lys-Phe-DLeu-Aic-Arg-Ile-Leu-NH2] (H-FVPWFSKF[dL][Aic]RIL-NH2)	18	30.4	> 50	0.74	20.9		8.28	0.71	13.9	IC50 (HCoV-OC43): 0.62 µM; IC90 (HCoV-OC43): 13.2 µM; IC50 (HPIV-3): 33.8 µM; IC90 (HPIV-3): > 50 µM
H-FVQWFSKFLGRIL-NH2 [TL, H-Phe-Val-Gln-Trp-Phe-Ser-Lys-Phe-Leu-Gly-Arg-Ile-Leu-NH2, reference compound]						minor damage	19.6			hemolytic activity (human erythrocytes): practically devoid of hemolytic activity; concentration showing residual hemolytic activity (human erythrocytes; red blood cells): ≥ 50 µM
temporin B [TB]										reduction of virus titers (HSV-1): 5 log
